Results taken from PubChem BioAssay AID179 (DTP/NCI, 2004).
Where “and” joins values, the source holds several entries; their conditions need not be identical. Equal values may be shown once. Calls of active or inactive are those of the source.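 How the source made its calls: active means compounds giving half or more protection of infected cells from virus-caused growth loss, again on retest; inactive means the rest.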

Test system: CEM cells HIV-1 protection, formazan growth assay
Test: NCI AIDS Antiviral Assay
Conditions: for IC50: measured here: growth of uninfected CEM cells
How it was run: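 Screen of anti-HIV-1 activity in human CEM cells using a formazan-based growth measurement at five drug concentrations. Hits with 50% or greater protection were repeated, and confirmation required reproducible complete protection.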

Row | Structure (SMILES) | EC50 [µM] | IC50 | outcome
1 | NCCCS(=O)(=O)O | > 200 | > 200 µM | –
2 | COc1ccc(N[C@H]([C@@H](c2ccccc2)S(=O)c2ccc(C)cc2)C(F)(F)F)cc1 (some centres not stated) | > 200 | 34.7 µM | –
3 | COC(=O)c1c[nH]cc1CCCCc1c[nH]cc1C(=O)OC | – | – | inactive
4 | COc1cc(C(c2cccc3ccccc23)N2C(=O)CCC2C(=O)O)cc(OC)c1OC (configuration not stated) | > 200 | > 200 µM | –
5 | Oc1ccc(S)cc1CNc1ccccc1 | > 200 | 22.4 µM | –
6 | c1ccc2c(c1)[nH]c1c2nc2sccn21 | > 234 | > 145 µM and 214 µM | –
7 | CC(=O)c1ccc(NC(=O)/C(CC(=O)c2sc(-c3cccnc3)nc2C)=N/NC(N)=O)cc1 | > 21.4 | > 21.4 µM | –
8 | O=S1(=O)OCCOS(=O)(=O)C1Cl | > 1050 | 178 µM | –
9 | CSc1nc(C#N)c(N)n1C | > 200 | > 200 µM | –
10 | Cc1cn(C(Cc2ccccc2)OCCO)c(=O)[nH]c1=O (configuration not stated) | > 200 | > 200 µM | –
11 | O=[N+]([O-])c1cc2n[nH]nc2c2nonc12 | > 200 | 4.79 µM | –
12 | CSc1cccc(-n2c3nc(=O)n(C)c(=O)c-3nc3ccccc32)c1 | – | – | inactive
13 | COc1cc([N+](=O)[O-])c(S(=O)(=O)O)cc1N | > 1000 | > 1000 µM | –
14 | c1nc2cscc2c2cscc12 | – | – | inactive
15 | CC(C)(SSC(C)(C)C(N)C(=O)O)C(N)C(=O)O (configuration not stated) | > 427 | > 427 µM | –
16 | O=C1c2ccccc2C(=O)N1CCn1ccc(NC(c2ccccc2)(c2ccccc2)c2ccccc2)nc1=O | > 13.8 | > 13.8 µM | –
17 | [Cl-].[Cl-].[Pt+4].[S-]c1ncccn1.[S-]c1ncccn1 | > 100 | 0.355 µM | –
18 | COC1(OC)c2ccccc2C2(O)c3ccccc3C(=O)C12 (configuration not stated) | – | – | inactive
19 | CSC(=Nc1ccc(Br)cc1)NC(=O)c1cc([N+](=O)[O-])cc([N+](=O)[O-])c1 | > 200 | 34.7 µM | –
20 | O=C1C2CN(Cc3ccccc3)CC1CN(CC1CC1)C2 | > 240 | > 240 µM | –
21 | Cc1ccc2c(c1)sc1nnc(Cl)n12 | > 200 | > 200 µM | –
22 | CC(C)CCC[C@@H](C)C1CCC2[C@@H]3CCC4C[C@H](CCC=C(c5cc(Cl)c(O)c(C(=O)O)c5)c5cc(Cl)c(O)c(C(=O)O)c5)CC[C@]4(C)C3CC[C@@]21C (some centres not stated) | 35.5 | > 200 µM | –

Row | Structure (SMILES) | EC50 [µM] | IC50 | outcome
23 | N#C/C=C/c1ccc2ccccc2c1 | > 40.7 | > 40.7 µM | –
24 | C=CCOC(=O)C1CC2OC2CC1C(=O)OCC=C (configuration not stated) | > 200 | > 200 µM | –
25 | CC(=O)OC12c3ccccc3C1CCCCCC21OCCCO1 (configuration not stated) | > 200 | > 200 µM | –
26 | COc1ccc([C@]23CCN(S(=O)(=O)c4ccc(C)cc4)[C@H]2[C@H](CO)C2(CC3)OCC(C)(C)CO2)cc1OC | > 100 | 87.1 µM | –
27 | O=C(CC1=Nc2nnc(CCCCCCCc3nnc4n3C(=O)C(CC(=O)c3ccccc3)=N4)n2C1=O)c1ccccc1 | > 1.82 | > 1.82 µM | –
28 | CCOC(=O)C1(Cc2ccccc2)Cc2cc3c(cc2C1)CCC3 | > 200 | 33.9 µM | –
29 | C=C1C(=O)C23C(O)C1CC[C@H]2C12CCCC(C)(C)[C@H]1[C@H](O)[C@]3(O)OC2 (some centres not stated) | > 724 | 0.339 µM | –
30 | CCCCNC(=S)Nn1c(-c2ccccc2)nc2ccccc2c1=O | > 20.4 | > 20.4 µM | –
31 | COc1cccc2c(=O)oc(-c3ccccc3C)nc12 | > 200 | 45.7 µM | –
32 | O=C(O)c1cc2sc(C(=O)O)cc2s1 | – | – | inactive
33 | COc1cccc(C2c3cc4c(cc3OC(N3CCCCC3)C2C)OCO4)c1O (configuration not stated) | > 200 | 3.02 µM | –
34 | CCCCNC(=O)CCN(C(=O)O)S(=O)(=O)c1ccc(NC(=O)c2ccccc2)cc1 | > 112 | > 112 µM | –
35 | COc1ccc(CNc2cnc3ccc(N)cc3n2)cc1 | > 129 | 77.6 µM | –
36 | CCOP(=S)(NN=C1CCCCC1)OCC | > 200 | 112 µM | –
37 | N#CN=C(N)c1sc2nc3c(c(-c4ccc(Br)cc4)c2c1N)CCCC3 | > 200 | 7.08 µM | –
38 | CN(CC1=C(O)C(=O)C(CN(C)Cc2c(O)ccc3ccccc23)=C(O)C1=O)Cc1c(O)ccc2ccccc12 | > 17.4 | > 17.4 µM | –
39 | O=C1C2=C(C(=O)c3ccccc31)C(O)(S(=O)(=O)O)C(O)(S(=O)(=O)O)C1N=CC=CC21 (configuration not stated) | > 200 | 3.39 µM | –
40 | C=CCNC(=S)N1c2ccccc2NC(=O)CC1C (configuration not stated) | > 661 | > 661 µM | –
41 | O=C1CSC(c2c[nH]c3ccccc23)N1c1cccc([N+](=O)[O-])c1 (configuration not stated) | > 200 | 21.9 µM | –
42 | O=C(OC/C=C1C=C(OC(=O)c2ccccc2)/C(=N/N(C(=O)c2ccccc2)c2ccccc2)O\1)c1ccccc1 | > 200 | 11 µM | –
43 | Cc1c(CC#N)cc(C)c2c3c([nH]c12)-c1ccccc1CC3 | > 26.3 | 19.1 µM | –
44 | O=C(NC(C(F)(F)F)(C(F)(F)F)P(=O)(Cc1ccccc1)Cc1ccccc1)C(C(F)(F)F)C(F)(F)F | – | – | inactive

Row | Structure (SMILES) | EC50 [µM] | IC50 | outcome
45 | O=C(/C=C/c1ccccc1)c1ccc(Cl)cc1Cl | > 2.69 | > 2.69 µM | –
46 | CC(O)C(N=Cc1ccccc1[O-])C(=O)[O-].CC(O)C(N=Cc1ccccc1[O-])C(=O)[O-].[Co+2] (configuration not stated) | > 363 | 64.6 µM | –
47 | O=c1oc2ccccc2c(O)c1Cc1ccc(Cc2c(O)c3ccccc3oc2=O)cc1 | > 200 | 182 µM | –
48 | Oc1ccc(SCc2cc(O)c(O)c(O)c2)cc1 | > 200 | 6.92 µM | –
49 | O=C1OC(c2cccc3ccc(Br)cc23)c2ccccc21 (configuration not stated) | 27.5 | 52.5 µM | –
50 | COc1ccccc1N1C(=O)/C(=C\c2cccc(Oc3ccccc3)c2)SC1c1ccccc1 (configuration not stated) | > 200 | 52.5 µM | –
51 | O=C(N=Nc1c(O)[nH]c2ccccc12)c1ccccc1O | > 25.1 | 15.5 µM | –
52 | COc1cc(/C=N/Nc2nnc3c4ccccc4c4ncccc4c3n2)cc(OC)c1OC | > 100 | 57.5 µM | –
53 | COc1cc(CNc2cnc3ccc(N)cc3n2)cc(OC)c1OC | > 525 | 35.5 µM | –
54 | O=C1C=CC(=O)C(CNc2ccc(C(=O)OC34CC5CC(CC(C5)C3)C4)cc2)=C1Br | > 200 | 1.51 µM | –
55 | COC(=O)C1C23CC(=O)CC1(c1ccc4c(c1)OCO4)C2NC3=O (configuration not stated) | > 398 | > 398 µM | –
56 | O=C(Sc1ccccc1)C1OC12CCCCC2 (configuration not stated) | > 200 | 13.2 µM | –
57 | CC(=O)OCc1nnn2c1CCC2 | – | – | inactive
58 | CNC(=O)N(CCC#N)CCN(C(=O)N(C)C)c1ccccc1 | > 200 | > 200 µM | –
59 | Cn1nc(-c2cccc(-c3nn(C)c(=NCCO)s3)n2)sc1=NCCO | > 200 | > 200 µM | –
60 | C=CCNC(=O)CN(CC(=O)O)C1CCCCC1N(CC(=O)O)CC(=O)O (configuration not stated) | > 200 | > 200 µM | –
61 | CC(=O)c1cc(S(=O)(=O)c2ccc(O)c(C(C)=O)c2)ccc1O | > 200 | 42.7 µM | –
62 | Cc1c(Cl)c(=O)oc2cc(OCC(=O)c3ccccc3)ccc12 | > 100 | > 100 µM | –
63 | COc1cc(/C=C/c2ccc3ccccc3n2)cc(OC)c1OC | > 22.4 | 1.48 µM | –
64 | CC(C)C1OCC(CO)CO1 (configuration not stated) | > 200 | > 200 µM | –
65 | O=C(CC(=O)C1CCOC1=O)C(=O)Nc1cccc(Cl)c1 (configuration not stated) | – | – | inactive
